Assay results reported in patent US11759461B2, “Small molecule inhibitors of cancer stem cells and mesenchymal cancer types” (The Scripps Research Institute, priority 2017, dated 2023).

Experiments:
[1] = target: T1, recombinant full length VIM (Homo sapiens, UniProt P08670); assay: In vitro photo-affinity labeling of recombinant proteins with 1-PAP; format: binding
T1 construct: 1-PAP labels recombinant full length VIM in vitro
Procedure: To identify the relevant cellular target of Compound 1, we incubated live FOXC2-HMLER cells with 2.5 μM 1-PAP, as prepared in Example 5, for 15 minutes and subjected these cells to UV irradiation. A sample containing both 1-PAP and a 20-fold molar excess of free Compound 1 was used to distinguish specific labeling events.
VIM consists of a long rod domain, which forms a coiled coil in the presence of other VIM molecules, as well as head and tail domains. To identify which portion of the protein was the relevant site of 1-PAP labeling, we expressed these domains as GST fusion proteins. […] VIM is one of four type III intermediate filament proteins, whose members additionally include Peripherin, glial fibrillary acidic protein (GFAP), and Desmin, which share 59%, 61%, and 62% sequence similarity to VIM respectively (SIM alignment, ExPASy) (E. Fuchs et al., Annu. Rev. Biochem. 63 (1994) 345-382).

FOXC2-HMLER cells [2] = assay: Confocal imaging of thymidine synced FOXC2-HMLER cells at metaphase; format: cell-based, human
From the text: Because Compound 1 induces a hyper-phosphorylated VIM phenotype, we sought to determine if Compound 1's engagement of VIM might interfere at an alternative stage of mitosis. We therefore performed time course confocal imaging studies of Compound 1 treated FOXC2-HMLER cells after their release from thymidine blocking-based cell cycle synchronization.
Compound 1 treatment also disrupted the ability of β-tubulin to faithfully form the fine spindle microtubules of the mitotic spindle, instead resulting in a compressed phenotype with radiating projections connecting unaligned chromosomes. To assess the uniqueness of this phenotype, we evaluated the metaphase phenotypes of other chemical inhibitors which have shown to alter mitotic progression. These included inhibitors of centromere-associated protein E (CENP-E, also called kinesin-7, GSK92395), kinesin spindle protein (KSP, also called Eg5, Ispinesib), polo like kinases (PLK1/2/3, BI2536), and aurora kinases (AURKA/B/C, VX-680).

VIM [3] = target: T2, VIM (Homo sapiens, UniProt P08670); assay: Immunofluorescent analysis of VIM filamentous architecture in HUVECs; format: cell-based; conditions: one-hour treatment
T2 construct: endogenous in cells; host or cells: FOXC2-HMLER
T2 sequence (P08670 whole entry): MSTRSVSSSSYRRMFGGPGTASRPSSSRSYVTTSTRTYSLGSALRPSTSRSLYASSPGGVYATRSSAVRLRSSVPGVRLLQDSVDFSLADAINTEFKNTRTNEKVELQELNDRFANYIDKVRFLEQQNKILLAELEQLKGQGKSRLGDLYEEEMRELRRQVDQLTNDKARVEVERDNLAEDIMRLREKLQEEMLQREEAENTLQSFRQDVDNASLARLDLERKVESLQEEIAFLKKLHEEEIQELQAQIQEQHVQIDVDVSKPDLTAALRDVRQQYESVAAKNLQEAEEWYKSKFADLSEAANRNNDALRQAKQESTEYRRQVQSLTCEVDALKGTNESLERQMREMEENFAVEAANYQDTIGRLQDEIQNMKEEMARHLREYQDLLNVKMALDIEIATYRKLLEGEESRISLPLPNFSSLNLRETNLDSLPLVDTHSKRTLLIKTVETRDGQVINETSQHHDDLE

FOXC2-HMLER cells [4] = assay: Multinucleation of FOXC2-HMLER cells; format: cell-based, human; conditions: 250-500 nM, 24 hours
VIM [5] = target: T2, VIM; assay: Western blotting / immunofluorescence of VIM protein status in FOXC2-HMLER cells; format: cell-based; conditions: FOXC2-HMLER cells, Western blotting
Procedure: Western blotting was performed essentially as described previously (M. J. Bollong et al. ACS Chem. Biol. 10 (2015) 2193-2198). Cells were collected by brief trypsinization and centrifugation at 500 g for 5 minutes. Cells were lysed by the addition of RIPA buffer with protease and phosphatase inhibitors (Roche). Lysates were incubated on ice for 30 minutes before eliminating insoluble protein content by centrifugation at 12,000 g for 5 minutes at 4° C. Protein concentrations were determined from absorbance values obtained by a Nanodrop instrument. Equal amounts of protein were then mixed with 2× loading buffer (100 mM TRIS-HCl, 1% SDS, 10% glycerol, 0.1% bromophenol blue 10%-mercaptoethanol) and exposed to 95° C. for 5 minutes. Protein was separated by SDS-PAGE using 4-12% Bis-Tris Gels (Invitrogen) and then transferred to PVDF membranes (Invitrogen) using semi-dry transfer. Membranes were blocked for 1 hour at room temperature in 5% non-fat dry milk in TBST (Tris buffered saline with 0.1% Tween 20). Membranes were incubated overnight with primary antibodies in blocking buffer overnight at the dilutions ranging from 1:500 to 1:2000. After 3 washes with TBST, membranes were then exposed to HRP-conjugated secondary antibodies (1:5000 in blocking buffer, Sigma) for one hour followed by one hour of additional washing with TBST. Relative protein content was visualized using film and SuperSignal West Dura Substrate. For VIM degradation blots, 20-60 μg of protein content was loaded per gel lane and the anti-VIM antibody V9 (ab8069) was used to blot for VIM protein content. Phospho-protein blots were performed as above with the exception that primary antibodies were incubated in 5% bovine serum albumin in TBST instead of milk.
We performed Western blotting analysis of FOXC2-HMLER cells treated for 24 hours with Compound 1 with commercially available antibodies targeting specific phosphorylated VIM species (P-S39, P-S56, P-S83).
In contrast, only a small fraction of cells undergoing mitosis stained positive for P-S56-VIM in DMSO-treated controls, consistent with previous reports identifying phosphorylation at S56 as a modification catalyzed by cyclin dependent kinase 1 (CDK1; FIG. 6) (T. Yamaguchi, T. et al., J. Cell Biol. 171 (2005) 431-436.

control HMLER cells = assay: Cell Titer Glo viability of control HMLER cells; format: cell-based; conditions: Homo sapiens; 72-hour incubation; read-out: control HMLER IC50
From the text: An engineered cancer cell line HMLER as an isogenic screening system was employed to identify compounds that are selectively toxic to the FOXC2 positive genotype. HMLER cells are derived from mammary epithelial cells (HMECs), but are virally transformed with the […] oncogene (G12V), human telomerase reverse transcriptase (hTERT), and SV40 large-T antigen (B. Elenbaas, B. et al. Genes Dev. 15 (2001) 50-65). Expression of these genes endows HMLER cells with functional immortality and tumorigenic potential at high seeding number (>10^6 cells; Hollier (2013)). […]
For high throughput screening, FOXC2-HMLER and HMLER cells were plated at 10^3 cells per well in white 384-well plates in 50 μL of MEGM medium (Lonza). […] After 72-hour incubation, 30 μL of a Cell Titer Glo solution (diluted 1:6 in water, Promega) was dispensed into each well and luminance values were recorded using an Envision plate reader. […]
More specifically, in the high throughput screening assay above, each cell line was plated at 1,000 cells per well in 384-well plates, treated for 72 hours with 2 μM of test compound, and the viability of each line was determined in parallel by Cell Titer Glo (Promega) luminance measurements. […]

[6] = test system: FOXC2-expressing HMLER cells; assay: Cell Titer Glo viability of FOXC2-HMLER cells (high throughput screen and 10-point response); format: cell-based; conditions: Homo sapiens; 72-hour incubation; read-out: FOXC2-HMLER IC50
In short: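 FOXC2-HMLER cells (HMLER run in parallel) seeded at 1,000 cells/well in MEGM, attached 1 h, then given compound in DMSO (2 μM in the screen). After 72 h, viability was read by Cell Titer Glo luminescence.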

T1 sequence (P08670 whole entry): as above

CC1(CC[C@H](NC(=O)CCOCCOCCNC(=O)CCCC[C@@H]2SC[C@@H]3NC(=O)N[C@@H]32)C(=O)NCCOCCOCCOc2cc(Cl)cc(N3CCN(c4cnnc5c(Cl)cccc45)CC3)c2)N=N1 [Compound 1-PAP, N—((S)-1-(3-chloro-5-(4-(8-chlorocinnolin-4-yl)piperazin-1-yl)phenoxy)-11-(2-(3-methyl-3H-diazirin-3-yl)ethyl)-10,13-dioxo-3,6,16,19-tetraoxa-9,12-diazahenicosan-21-yl)-5-((3aS,4S,6aR)-2-oxohexahydro-1H-thieno[3,4-d]imidazol-4-yl)pentanamide]
labeling of type III intermediate filament proteins ([1]; VIM vs Peripherin, GFAP, Desmin recombinant preparations): labeled VIM exclusively
labeling of VIM domains expressed as GST fusion proteins ([1]; head, rod and tail domains): binds specifically and potently to the rod domain of VIM

CC(C)Oc1ccc(C(=O)N[C@H](CNC(=O)CN(C)C)Cc2ccc(-c3cn4cccc([C@H](C)O)c4n3)cc2)cc1Cl [GSK92395]
VIM filamentous structure at metaphase (FOXC2-HMLER cells [2]): did not induce VIM filamentous collapse
chromosome alignment to the metaphase plate (FOXC2-HMLER cells [2]): unaligned chromosome phenotype

CC1=C(CO)C(=O)O[C@@H]([C@@H](C)[C@H]2CC[C@H]3[C@@H]4C[C@H]5O[C@]56[C@@H](O)C=CC(=O)[C@]6(C)[C@H]4CC[C@]23C)C1 [WIF-A, Withaferin A, reference compound]
VIM filamentous architecture in HUVECs (VIM [3]): promoted the destruction of fine VIM-containing filamentous structures
multinucleated FOXC2-HMLER cells (FOXC2-HMLER cells [4]): significant increase
lower molecular weight VIM degradation products (VIM [5]): dose-dependent accumulation
chromosome alignment to the metaphase plate (FOXC2-HMLER cells [2]): unaligned chromosomes during metaphase

COc1cccc2c1C(=O)c1c(O)c3c(c(O)c1C2=O)C[C@@](O)(C(=O)CO)C[C@@H]3O[C@H]1C[C@H](N)[C@H](O)[C@H](C)O1 [doxorubicin, reference compound]
IC50 (control HMLER cells): 267 nM
IC50 [6]: 447 nM
